As a reminder, the IC50 is the concentration at which inhibition is half-maximal. The low end stands for greater potency in that assay, the high end for weaker potency in that assay.

A value given as a limit tells only on which side of the number the result lay.

For 24 molecules, IC50 results are on record in patent publication US9567302B2, “Carbamate compounds and of making and using same” (Abide Therapeutics, Inc., priority 2012, dated 2017).

Assay type in all cases: biochemical
What all share (design): from tissue; host or cells: mouse brain membrane fraction
Holding throughout (settings): 30 min preincubation at 37° C.

Assay [1] deals with T1, ABHD6 (Mus musculus, UniProt Q8R2Y0).
T1 sequence (Q8R2Y0 1-336): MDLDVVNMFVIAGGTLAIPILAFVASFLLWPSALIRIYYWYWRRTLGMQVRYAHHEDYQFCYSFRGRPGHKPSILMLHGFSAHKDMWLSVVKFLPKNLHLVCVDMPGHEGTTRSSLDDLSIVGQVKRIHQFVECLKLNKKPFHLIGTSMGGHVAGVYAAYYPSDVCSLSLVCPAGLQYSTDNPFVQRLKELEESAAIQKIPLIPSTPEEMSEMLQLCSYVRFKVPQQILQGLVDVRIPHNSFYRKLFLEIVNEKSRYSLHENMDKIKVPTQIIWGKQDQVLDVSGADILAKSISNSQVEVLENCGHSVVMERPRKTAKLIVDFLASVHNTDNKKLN
The assay is described as follows: In vitro competitive activity-based protein profiling (FP-Rh), mouse ABHD6. As for the experimental part:
(§1) In Vitro Competitive Activity-Based Protein Profiling.
(§2) Proteomes (mouse brain membrane fraction or cell lysates) (50 μL, 1.0 mg/ml total protein concentration) were preincubated with varying concentrations of inhibitors at 37° C. After 30 min, FP-Rh (1.0 μL, 50 μM in DMSO) was added and the mixture was incubated for another 30 min at 37° C. Reactions were quenched with SDS loading buffer (50 μL—4×) and run on SDS-PAGE.

In assay [2] the target is T2, FAAH (Mus musculus, UniProt O08914).
T2 sequence (O08914 1-579): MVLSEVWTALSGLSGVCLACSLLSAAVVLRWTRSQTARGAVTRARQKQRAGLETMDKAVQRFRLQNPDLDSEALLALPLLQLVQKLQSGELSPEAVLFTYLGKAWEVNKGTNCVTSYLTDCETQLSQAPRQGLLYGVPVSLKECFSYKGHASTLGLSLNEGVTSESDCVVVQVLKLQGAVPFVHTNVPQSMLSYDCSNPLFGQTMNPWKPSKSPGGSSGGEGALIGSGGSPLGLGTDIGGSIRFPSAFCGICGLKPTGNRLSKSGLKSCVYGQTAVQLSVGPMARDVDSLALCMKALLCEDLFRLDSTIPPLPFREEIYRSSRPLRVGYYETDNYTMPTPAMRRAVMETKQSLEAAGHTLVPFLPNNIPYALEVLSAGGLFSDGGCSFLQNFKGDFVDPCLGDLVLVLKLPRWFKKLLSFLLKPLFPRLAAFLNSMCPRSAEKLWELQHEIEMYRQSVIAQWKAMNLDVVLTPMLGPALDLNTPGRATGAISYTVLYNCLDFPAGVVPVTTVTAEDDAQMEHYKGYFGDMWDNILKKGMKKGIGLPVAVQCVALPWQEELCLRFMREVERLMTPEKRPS
The assay is described as follows: In vitro competitive activity-based protein profiling (FP-Rh), mouse FAAH. The procedure: as §1, §2

For assay [3], the target named is T3, MAGL (Mus musculus, UniProt O35678).
T3 sequence (O35678 1-303): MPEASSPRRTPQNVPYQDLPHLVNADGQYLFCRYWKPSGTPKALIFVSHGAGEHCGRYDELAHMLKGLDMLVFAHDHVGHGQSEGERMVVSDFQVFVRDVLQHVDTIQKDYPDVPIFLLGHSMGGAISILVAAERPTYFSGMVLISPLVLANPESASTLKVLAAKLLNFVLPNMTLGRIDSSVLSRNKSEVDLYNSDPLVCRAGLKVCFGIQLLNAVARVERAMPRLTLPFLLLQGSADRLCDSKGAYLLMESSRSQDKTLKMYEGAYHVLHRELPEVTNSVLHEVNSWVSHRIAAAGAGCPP
The assay is described as follows: In vitro competitive activity-based protein profiling (FP-Rh), mouse MAGL. As for the experimental part: as §1, §2

For the molecule `O=C(ON1C(=O)C2CCCCC2C1=O)N1CCN(C(c2ccc(Cl)cc2)c2ccc(Cl)cc2)CC1` (centres unmarked) [Example 45, 1,3-Dioxohexahydro-1H-isoindol-2(3H)-yl 4-(bis(4-chlorophenyl)methyl)piperazine-1-carboxylate], the IC50 in assay [1] (Table 1, mouse proteome) was 100 to 1000 nM; in assay [2] (Table 1, mouse proteome), greater than 10000 nM; in assay [3] (Table 1, mouse proteome), 1000 to 10000 nM.
With `Cc1cc(N2CCN(C(=O)ON3C(=O)CCC3=O)CC2)c2ccccc2n1` [Example 18, 2,5-Dioxopyrrolidin-1-yl 4-(2-methylquinolin-4-yl)piperazine-1-carboxylate], the 50% inhibitory concentration (IC50) is 1000 to 10000 nM in assay [1] (Table 1, mouse proteome); greater than 10000 nM in assay [2] (Table 1, mouse proteome); 100 to 1000 nM in assay [3] (Table 1, mouse proteome).
Take `CCCC1CC(=O)N(OC(=O)N2CCN(C(c3ccc(Cl)cc3)c3ccc(Cl)cc3)CC2)C1=O` (centres unmarked) [Example 43, 2,5-Dioxo-3-propylpyrrolidin-1-yl 4-(bis(4-chlorophenyl)methyl)piperazine-1-carboxylate]: the IC50 in assay [1] (Table 1, mouse proteome) was 100 to 1000 nM; in assay [2] (Table 1, mouse proteome), greater than 10000 nM; in assay [3] (Table 1, mouse proteome), 100 to 1000 nM.
As for `O=C1COc2ccc(CN3CCN(C(=O)ON4C(=O)CCC4=O)CC3)cc2N1` [Example 134, 2,5-Dioxopyrrolidin-1-yl 4-((3-oxo-3,4-dihydro-2H-benzo[b][1,4]oxazin-6-yl)methyl)piperazine-1-carboxylate], the IC50 was 1000 to 10000 nM in assay [1] (Table 2, mouse proteome); greater than 10000 nM in assay [2] (Table 2, mouse proteome); 1000 to 10000 nM in assay [3] (Table 2, mouse proteome).
For `O=C(ON1C(=O)CCC1=O)N1CCN(Cc2ccc(N3CCOCC3)cc2F)CC1` [Example 62, 2,5-Dioxopyrrolidin-1-yl 4-(2-fluoro-4-morpholinobenzyl)-piperazine-1-carboxylate], the IC50 is 1000 to 10000 nM in assay [1] (Table 2, mouse proteome); greater than 10000 nM in assay [2] (Table 2, mouse proteome); 1000 to 10000 nM in assay [3] (Table 2, mouse proteome).
`COc1ccc(N2CCN(C(=O)ON3C(=O)c4ccccc4C3=O)CC2)cc1` [Example 34, 1,3-Dioxo-2,3-dihydro-1H-isoindol-2-yl 4-(4-methoxyphenyl)piperazine-1-carboxylate]: the IC50 in assay [1] (Table 1, mouse proteome) is less than 100 nM; in assay [2] (Table 1, mouse proteome), 100 to 1000 nM; in assay [3] (Table 1, mouse proteome), greater than 10000 nM.
On to `O=C(ON1C(=O)CCC1=O)N1CCN(Cc2cc(Cl)ccc2N2CCCC2)CC1` [Example 98, 2,5-Dioxopyrrolidin-1-yl 4-{[5-chloro-2-(pyrrolidin-1-yl)phenyl]methyl}piperazine-1-carboxylate], for which the IC50 in assay [1] (Table 2, mouse proteome) is 100 to 1000 nM; in assay [2] (Table 2, mouse proteome) it was greater than 10000 nM; in assay [3] (Table 2, mouse proteome), less than 100 nM.
For the molecule `O=C(ON1C(=O)CCC1=O)N1CCN(Cc2ccc(F)c(N3CCCC3)c2)CC1` [Example 124, 2,5-Dioxopyrrolidin-1-yl 4-(4-fluoro-3-(pyrrolidin-1-yl)benzyl)piperazine-1-carboxylate], the IC50 was 100 to 1000 nM in assay [1] (Table 2, mouse proteome); greater than 10000 nM in assay [2] (Table 2, mouse proteome); less than 100 nM in assay [3] (Table 2, mouse proteome).
The corresponding values for `O=C(ON1C(=O)CCC1=O)N1CCN(Cc2cccc(N3CCOCC3)c2)CC1` [Example 83, 2,5-Dioxopyrrolidin-1-yl 4-(3-morpholinobenzyl)piperazine-1-carboxylate] are 100 to 1000 nM, greater than 10000 nM and 100 to 1000 nM.
Take `Cn1cc(CN2CCN(C(=O)ON3C(=O)CCC3=O)CC2)c(-c2ccccc2)n1` [Example 149, 2,5-Dioxopyrrolidin-1-yl 4-((1-methyl-3-phenyl-1H-pyrazol-4-yl)methyl)piperazine-1-carboxylate]: the IC50 in assay [1] (Table 2, mouse proteome) is 1000 to 10000 nM; in assay [2] (Table 2, mouse proteome) it was greater than 10000 nM; in assay [3] (Table 2, mouse proteome), 1000 to 10000 nM.
Turning to `CCCN(Cc1ccc(N2CCCCC2)cc1)C(=O)ON1C(=O)CCC1=O` [Example 19, 2,5-Dioxopyrrolidin-1-yl N-{[4-(piperidin-1-yl)phenyl]methyl}-N-propylcarbamate], the IC50 in assay [1] (Table 1, mouse proteome) was greater than 10000 nM; in assay [2] (Table 1, mouse proteome), greater than 10000 nM; in assay [3] (Table 1, mouse proteome), greater than 10000 nM.
For `O=C(ON1C(=O)CCC1=O)N1CCN(Cc2cc(Cl)cc(N3CCCCC3)c2)CC1` [Example 132, 2,5-Dioxopyrrolidin-1-yl 4-(3-chloro-5-(piperidin-1-yl)benzyl)piperazine-1-carboxylate], the IC50 in assay [1] (Table 2, mouse proteome) was 100 to 1000 nM; in assay [2] (Table 2, mouse proteome) it was greater than 10000 nM; in assay [3] (Table 2, mouse proteome), less than 100 nM.
For `O=C(ON1C(=O)CCC1=O)N1CCCCC1` [Example 17, 2,5-Dioxopyrrolidin-1-yl piperidine-1-carboxylate], the IC50 is greater than 10000 nM in assay [2] (Table 1, mouse proteome) and greater than 10000 nM in assay [3] (Table 1, mouse proteome).
Turning to `O=C(ON1C(=O)CCC1=O)N1CC[C@H](OCc2ccccc2)C1` [Example 40, 2,5-Dioxopyrrolidin-1-yl (3S)-3-(benzyloxy)pyrrolidine-1-carboxylate], the IC50 is greater than 10000 nM in assay [2] (Table 1, mouse proteome) and greater than 10000 nM in assay [3] (Table 1, mouse proteome).
For `O=C(ON1C(=O)CCC1=O)N1CC[C@@H](OCc2ccccc2)C1` [Example 39, 2,5-Dioxopyrrolidin-1-yl (3R)-3-(benzyloxy)pyrrolidine-1-carboxylate], the IC50 in assay [2] (Table 1, mouse proteome) was greater than 10000 nM; in assay [3] (Table 1, mouse proteome) it was greater than 10000 nM.
In assay [2] (Table 1, mouse proteome), `CN(C)C(=O)ON1C(=O)CNC1=O` [Example 58, 2,5-Dioxoimidazolidin-1-yl dimethylcarbamate] returned an IC50 greater than 10000 nM.
Turning to `O=C(NCCc1ccc2ccccc2c1)ON1C(=O)CCC1=O` [Example 27, 2,5-Dioxopyrrolidin-1-yl N-[2-(naphthalen-2-yl)ethyl]carbamate], the IC50 in assay [1] (Table 1, mouse proteome) was greater than 10000 nM; in assay [3] (Table 1, mouse proteome) it was greater than 10000 nM.
In assay [3] (Table 2, mouse proteome), `O=C(ON1C(=O)CCC1=O)N1CCN(Cc2ccc(-c3ccccc3)cc2N2CCOCC2)CC1` [Example 161, 2,5-Dioxopyrrolidin-1-yl 4-((3-morpholino-[1,1′-biphenyl]-4-yl)methyl)piperazine-1-carboxylate] came in with an IC50 of 100 to 1000 nM.
On the same count and under the same terms, the figure for `O=C(ON1C(=O)CCC1=O)N1CCN(Cc2ccc(Cl)cc2)CC1` [Example 64, 2,5-Dioxopyrrolidin-1-yl 4-(4-chlorobenzyl)piperazine-1-carboxylate] is 100 to 1000 nM; for `Cc1cc(N2CCOCC2)ccc1CN1CCN(C(=O)ON2C(=O)CCC2=O)CC1` [Example 63, 2,5-Dioxopyrrolidin-1-yl 4-(2-methyl-4-morpholinobenzyl)piperazine-1-carboxylate] it is 1000 to 10000 nM.
The molecule `CC1CN(C(=O)ON2C(=O)CCC2=O)CCN1Cc1ccc(-c2ccccc2)cc1` (centres unmarked) [Example 160, 2,5-Dioxopyrrolidin-1-yl 3-methyl-4-[(4-phenylphenyl)methyl]piperazine-1-carboxylate] registered an IC50 in assay [3] (Table 2, mouse proteome) of 100 to 1000 nM.
Regarding `O=C(ON1C(=O)CCC1=O)N1CCN(C(c2ccc(Cl)cc2)c2ccc(Cl)cc2)CC1` [Example 2, 2,5-Dioxopyrrolidin-1-yl 4-[bis(4-chlorophenyl)methyl]piperazine-1-carboxylate], the IC50 in assay [1] (Table 1, mouse proteome) was 100 to 1000 nM; in assay [2] (Table 1, mouse proteome), greater than 10000 nM.
In assay [3] (Table 2, mouse proteome), `O=C(ON1C(=O)CCC1=O)N1CCN(Cc2ccc(Br)cc2N2CCCC2)CC1` [Example 72, 2,5-Dioxopyrrolidin-1-yl 4-(4-bromo-2-(pyrrolidin-1-yl)benzyl)piperazine-1-carboxylate] gave a 50% inhibitory concentration (IC50) of less than 100 nM.
With `CC1CN(C(=O)ON2C(=O)CCC2=O)CCN1C(c1ccc(Cl)cc1)c1ccc(Cl)cc1` (centres unmarked) [Example 151, 2,5-Dioxopyrrolidin-1-yl 4-[bis(4-chlorophenyl)methyl]-3-methylpiperazine-1-carboxylate], the IC50 in assay [3] (Table 2, mouse proteome) lay within 100 to 1000 nM.
